≈ marks a conversion by molar mass, not a printed value.
Tests used:
[1] = system: Aphidius rhopalosiphi; experiment: LR50; higher = less toxic; conditions: not reported; mortality
[2] = system: Coturnix coturnix; conditions: acute; oral; mortality
[3] = system: Daphnia magna; conditions: chronic/long-term; duration: 21 days; reproduction
[4] = system: Oncorhynchus mykiss; conditions: chronic/long-term; duration: 91 days; mortality
[5] = system: Bibionidae; conditions: chronic/long-term; duration: 28 days
[6] = system: Lepomis macrochirus; conditions: acute; duration: 96 hours; mortality
[7] = system: Rattus norvegicus
[8] = system: Apis mellifera; conditions: acute; duration: 48 hours; oral; unspecified; mortality
[9] = system: Canidae; conditions: chronic; duration: 2 years; oral; diet; Dog Other; body weight
[10] = system: Tagia sp.; conditions: acute; duration: 14 days; mortality
[11] = reproduction developmental, organ weight

SMILES | LR50 [1] [g/ha] | LD50 [2] [mg/kg-day] | NOEC [3] [mg/L] | NOEC [4] [mg/L] | NOEC [5] [mg/L] | LC50 [6] [µg/mL] | LD50 ([7]; acute, oral, mortality) [mg/kg-day] | NOAEL ([7]; developmental, development) [mg/kg-day] | NOAEL [7, 11] [mg/kg-day] | LD50 [8] [µg/piece] | NOAEL [9] [mg/kg-day] | LC50 [10] [mg/kg]
CCOC(=O)[C@@H](C)Oc1ccc(Oc2nc3ccc(Cl)cc3o2)cc1 [Fenoxaprop-P-ethyl] | 46.4 | 2000 | 0.22 | 0.036 | 0.2 | 0.19 (≈ 0.525 µM) | > 3150 | 10 | 1.4 | > 199 | 1 | > 1000
CCOC(=O)C(C)Oc1ccc(Oc2nc3ccc(Cl)cc3o2)cc1 (stereo not given) [Fenoxaprop-ethyl] | – | – | – | – | – | – | – | 10 | 1.4 | – | 1 | –
